{
  "source": "patent US8765729B2",
  "about": "“Cancer therapy” (Aeolus Sciences, Inc., priority 2001, dated 2014)",
  "key": {"[1]": {"assay": "Pharmacokinetic profile of MnTBAP in mice (serum and lung)", "conditions": "10 mg/kg ip; for Peak Level (Co): two-compartment fit"}, "tumor cells (A549)": {"test_system": "tumor cells (A549)", "experimental": "(§1) Two non-tumor cell lines (rat lung epithelial cells, L2; bovine endothelial cells, CPA-47) and one tumor cell line (human adenocarcinoma lung cells, A549) were examined for cell proliferation in the presence or absence of manganic porphyrins. Cells were plated in 24 well plates at 10,000 cells per well in the presence of cytotoxic agent (0-10 mM paraquat) for 24-48 hours plus increasing concentrations of MnTBAP, MnMm-4-PyP and their zinc analogs."}, "[2]": {"test_system": "rat lung epithelial cells, L2; bovine endothelial cells, CPA-47", "experimental": "as §1"}, "mice": {"test_system": "mice", "conditions": "48 hours; for deaths: 4 mice", "protocol": "Animals and treatments. Balb/c male mice that were 6-8 weeks of age were utilized in these studies (Taconic, Germantown, N.Y.). Mice were acclimated to 22° C. in an environmentally controlled room (12-hr light cycles) at least 6 days prior to treatment. Toxicity studies were employed using a moving average method previously described by Weil (Weil, Biometrics 8:249-263 (1952)). Groups of 4 mice were given MnTBAP (50, 88, 153 and 268 mg/kg, ip) and observed over a 48 hour time period.\nMnTBAP toxicity was assessed using a moving average method that consisted of four geometric dose groups (50, 88, 153 and 268 mg/kg, ip) of 4 mice each over 48 hours."}, "[3]": {"test_system": "bleomycin-induced pulmonary fibrosis", "assay": "Bleomycin-induced pulmonary fibrosis in mice", "experimental": "Noninvasive measurement of airway constriction in mice. The baseline resistance in unrestrained, conscious mice was assessed by whole body barometric plethysmography (Buxco Electronics, Troy, N.Y.). The techniques used were similar to those described by Zhu et al, J. Clin. Invest. 103(6):779-88 (1999)). Mice were placed in whole body plethysmographs with fast differential transducers interfaced to a computer. Measurements were made of respiratory rates, tidal volumes and enhanced pause (PENH). Airway constriction was expressed as PENH=[(Te/0.3Tr)−1]×[2Pef/3Pif], where Te=expiratory time (seconds), Tr=relaxation time (seconds), Pef=peak expiratory flow ([…]), and Pif=peak inspiratory flow (ml/second). Animals were allowed to equilibrate in the chambers for 15 minutes and then PENH was calculated over a 5-minute period.\nHydroxyproline measurement. The lungs were dried at 80° C. until a constant weight is obtained. The dried lungs were hydrolyzed under vacuum in a glass vial in 1 ml of 12 N HCl at 120° C. overnight. The samples were lyophilized and assayed for hydroxyproline content using chloramine-T as previously described (Woessner, Arch. Biochem. Biophys. 93:440-447 (1961)). Histopathology. The lungs were fixed in 4% paraformaldehyde for 24 hours and then processed for paraffin embedding. Sections of lung were stained with routine hematoxylin and eosin or with a Masson trichrome stain to assess the degree of fibrosis. The extent of lung injury and fibrosis was graded by four pathologists, blinded as to the treatment group, on a scale of one (no injury) to ten (severe injury/fibrosis). The major criteria examined included interstitial thickening, collagen deposition, type 2 cell hyperplasia, and inflammatory cell infiltration. Statistical Analyses. Data was analyzed using a two-way analysis of variance (ANOVA) or a one-way ANOVA if no significant interactions were found with the two-way ANOVA. Significant differences between groups were assessed using a Newman-Keuls multiple comparison test. Data was analyzed using a computer program, Prizm (Graph Pad Software, San Diego, Calif.). Statistical significance was set at p<0.05. Results Toxicity and Pharmacokinetic Assessment of MnTBAP in Mice\nMice were randomized into 4 groups using a two by two contingency table where two groups received either saline or bleomycin (3.5 U/kg body weight) by intratracheal instillation. Two groups also received either saline or MnTBAP (5 mg/kg body weight) by ip injection twice daily for 14 days.\nBleomycin given by intratracheal instillation produces a marked airway and alveolar fibrotic response (Evans et al, Am Rev. Respir. Dis. 125(1):89-94 (1982)). Mice were assessed for changes in airway function by measuring a marker, enhanced pause (PENH), of airway narrowing using non-invasive whole body barometric plethysmography. […] Lung fibrosis was also assessed by measuring hydroxyproline content in the lung as an index of collagen accumulation.\nOne lung from each mouse was instillation fixed with 4% paraformaldehyde and paraffin embedded for histopathology assessment. Tissue sections were stained with hematoxylin and eosin or with Masson trichrome stain to assess the degree of lung injury/fibrosis."}, "[4]": {"test_system": "L2, CPA-47 and A549 cells", "assay": "Cytotoxicity measured by LDH release", "conditions": "100 μM, 48 hours"}},
  "note": "“Also recorded” adds a separate entry of the source. Like-named read-outs stand apart in the source and are kept apart here.",
  "data": [
    {"smiles": "O=C(O)c1ccc(-c2c3nc(c(-c4ccc(C(=O)O)cc4)c4ccc([n-]4)c(-c4ccc(C(=O)O)cc4)c4nc(c(-c5ccc(C(=O)O)cc5)c5ccc2[n-]5)C=C4)C=C3)cc1.[Mn+3]", "note": "[MnTBAP, manganese (III) tetrakis (4-benzoic acid) porphyrin]", "values": [
      {"measurement": "accumulation in the lung", "setting": "[1]", "value": "does not accumulate in the lung"},
      {"measurement": "Distribution half-life (T1/2)", "setting": "[1]; lung", "value": 0.233, "unit": "h"},
      {"measurement": "Elimination half-life (T1/2)", "setting": "[1]; lung", "value": 9.5, "unit": "h"},
      {"measurement": "Peak Level (Co)", "setting": "[1]; lung", "value": 80, "unit": "μg/g protein"},
      {"measurement": "Distribution half-life (T1/2)", "setting": "[1]; serum", "value": 0.45, "unit": "h"},
      {"measurement": "Elimination half-life (T1/2)", "setting": "[1]; serum", "value": 9.5, "unit": "h"},
      {"measurement": "Peak Level (Co)", "setting": "[1]; serum", "value": 42, "unit": "mg/L"},
      {"measurement": "paraquat-mediated cytotoxicity in tumor cells", "setting": "tumor cells (A549)", "value": "potentiated paraquat-mediated cytotoxicity"},
      {"measurement": "relative efficiency of potentiation of paraquat cytotoxicity", "setting": "tumor cells (A549); A549", "value": "more efficient than MnTM-4-PyP"},
      {"measurement": "cytotoxic effects of paraquat in non-tumor cells", "setting": "[2]", "value": "protected non-tumor cells against the cytotoxic effects of paraquat"},
      {"measurement": "deaths", "setting": "mice; 50 mg/kg ip", "value": "no deaths"},
      {"measurement": "deaths", "setting": "mice; 88 mg/kg ip", "value": 1},
      {"measurement": "LD50", "setting": "mice; ip, 95% confidence interval 98-104 mg/kg", "value": 100, "unit": "mg/kg"},
      {"measurement": "decrease in airway constriction (PENH) produced by bleomycin", "setting": "[3]; 5 mg/kg ip twice daily, 14 days", "value": 30, "unit": "%"},
      {"measurement": "bleomycin-induced weight loss", "setting": "[3]; FIG. 8, after 5 days to end of study", "value": "attenuates bleomycin-induced weight loss"},
      {"measurement": "bleomycin-induced airway constriction and collagen accumulation", "setting": "[3]; FIG. 9, PENH and hydroxyproline, 14 days", "value": "attenuates bleomycin-induced airway constriction and collagen accumulation"},
      {"measurement": "bleomycin-induced lung injury by histopathology", "setting": "[3]; FIGS. 10, 11", "value": "attenuates bleomycin-induced pulmonary injury; also recorded: attenuates bleomycin-induced lung injury"},
      {"measurement": "PENH marker", "setting": "[3]; MnTBAP alone", "value": "did not affect the PENH marker"},
      {"measurement": "hydroxyproline content of the lung", "setting": "[3]; MnTBAP alone", "value": "little effect"},
      {"measurement": "lung histology", "setting": "[3]; MnTBAP alone", "value": "no effect on lung histology"},
      {"measurement": "pathology score", "setting": "[3]; MnTBAP alone", "value": "no effect on the pathology score"},
      {"measurement": "weight loss compared to saline control", "setting": "[3]; MnTBAP alone 5 mg/kg ip twice daily, 14 days", "value": "did not cause weight loss"},
      {"measurement": "maximum average loss of initial body weight", "setting": "[3]; bleomycin 3.5 U/kg it plus MnTBAP 5 mg/kg ip twice daily, 14 days, bleomycin alone 20%", "value": 10, "unit": "%"},
      {"measurement": "collagen accumulation by trichrome staining", "setting": "[3]; bleomycin plus MnTBAP", "value": "decreased the collagen accumulation"},
      {"measurement": "attenuation of bleomycin pathology score", "setting": "[3]; fibrosis score scale 0-8, 14 days", "value": 28, "unit": "%"},
      {"measurement": "interstitial thickening and inflammatory responses produced by bleomycin", "setting": "[3]; histopathology, hematoxylin and eosin", "value": "attenuated the marked interstitial thickening and inflammatory responses"},
      {"measurement": "decrease in hydroxyproline content caused by bleomycin", "setting": "[3]; lung, 5 mg/kg ip twice daily, 14 days", "value": 23, "unit": "%"},
      {"measurement": "attenuation of bleomycin-induced increases in the various indices", "setting": "[3]; physiologic, biochemical and pathology indices", "value": "roughly 30%"},
      {"measurement": "cytotoxicity (LDH release)", "setting": "[4]", "value": "None of the compounds produced cytotoxicity"}
    ]}
  ]
}
